This note sets out measurements from US20100258138A1, “RADIOLABELED 1-ACETATE PET IMAGING FOR RA[…] HEAD AND NECK CANCER” (priority 2006, published 2010).

Series [1] concerns lymph node metastases of head and neck squamous cell carcinoma. Kind of series: ACE-PET imaging of metastases. It counts as in vivo, human. On the procedure:
(§1) None of the patients suffered from diabetes. […] All patients participating in the study provided informed consent.
(§2) Six patients were studied with dedicated PET and four patients were investigated with PET/CT. A 32 minutes dynamic emission scan was performed immediately after intravenous injection of 10 MBq/kg body weight ACE. The scan time was 12×5s, 6×10s, 4×30s, 4×60s, 2×120s and 4×300s. Frame 30 (17-22 minutes after injection) generally provided the best image quality with highest tumor to background ratio and was therefore chosen for subsequent data analysis.
(§3) Isoactivity pixel value=(MPVtumor+APVbackground)×50%

The subject of the next series is salivary glands. Kind of series: ACE-PET physiological uptake in normal tissue. Further details: species or system human. The conditions noted are these: in vivo. The protocol:
as §2

The test system of series [2] is primary tumors of head and neck squamous cell carcinoma. Kind of series: ACE-PET imaging of primary tumors. It counts as in vivo, human. The protocol:
as §1, §2, §3

Series [3] relates to lymph node metastases of head and neck squamous cell carcinoma. The conditions noted are these: 21 metastatic lesions. The protocol:
(§4) Ten consecutive patients (median age 56, range 18-77 years), where of eight males and two females with histologically confirmed squamous cell carcinoma of the head and neck, were included in the study. None of the patients suffered from diabetes. […] Conventional staging of the tumors was performed by CT (n=9), MRI (n=1), histopathology and clinical examination. Histological confirmation was obtained by guided biopsies in all the primary tumors and most metastatic sites. […] All patients participating in the study provided informed consent. The study was accepted by the ethical committee of the participating hospital.
(§5) In all patients, both FDG-PET and ACE-PET were performed before the radiotherapy treatment. ACE and FDG-PET scans were performed on the same or consecutive day, except for one patient where the two types of PET scanning were done five days apart. PET studies were carried out with a dedicated PET scanner (Siemens ECAT HR^+, Knoxville, Tenn., USA) or with a PET/CT (GE Discovery S T, Milwaukee, Wis., USA). All patients were normoglycemic and were fasted at least 6 hours before tracer injection.
(§6) Whole-body scanning was performed one hour after intravenous injection of 5 MBq/kg body weight FDG. Six patients were examined by PET/CT and four patients were studied by PET alone. The patients were instructed to remain recumbent and avoid voicing and other uses of neck muscles during the uptake period.
(§7) PET images were co-registered with the CT or MRI images in all patients by a normalized mutual information procedure supported by manual correction using Hermes Multimodality™ software (Nuclear Diagnostics, Stockholm, Sweden). FDG-PET and ACE-PET images were analyzed both qualitatively and quantitatively, using Hermes Volume Display™ version V2β. In qualitative analysis, PET images were interpreted visually by two nuclear medicine physicians and any disagreement was resolved by consensus. The tumor uptake of FDG and ACE was graded into negligible, mild, moderate and intensive compared to the contra-lateral or surrounding tissues. An abnormal uptake equal to or exceeding mild was considered positive. In quantitative analysis, the mean standardized uptake value (SUV) and tumor volumes delineated by ACE and FDG-PET were evaluated. SUV was calculated as mean radioactivity concentration in the volumes (Bq/cc) divided by injected dose (Bq) per kilogram body weight. […]
(§8) Each tumor volume in FDG-PET and ACE-PET was delineated automatically by tracing an isoactivity pixel value set to 50% threshold of the maximum radioactivity corrected for background. The background was measured from a separately drawn region of interest (ROI) adjacent but at safe distance from the tumor. The isoactivity pixel value of each volume was calculated as: […]

Series [4] concerns primary tumors of head and neck squamous cell carcinoma. To be noted: ten patients. The protocol:
as §4, §5, §6, §7, §8

Molecules are shown by their SMILES. Where “and” joins values, the source holds several entries; their conditions need not be identical. Identical values can stand only once.

As to `C[11C](=O)O` [ACE, ^11C-acetate], in series [1] (21 metastatic lesions), the “ACE SUV (mean±SD)” value is 4.0±1.3. For the same compound, the “range of ACE SUV” value in series [1] (21 metastatic lesions) is reported as 2.4-6.2; in series [2] (primary tumors, ten patients), 2.5-10.6. Moreover, the “ACE-PET SUV” value is 3.5 and 5.9 and 4.7 and 5.1 and 3.1 and 2.9 and 4.5 and 3.9 and 4.6 and 5.8 and 3.0 and 2.8 and 2.6 and 3.7 and 6.2 and 2.4 and 2.7 in series [1] (individual metastasis (one line per lesion), 10 MBq/kg i.v., frame 17-22 min); 3.7 and 3.8 and 2.7 and 5.7 and 10.6 and 4.9 and 3.9 and 9.2 and 2.5 and 6.0 in series [2] (primary tumor, individual patient (one line per patient), 10 MBq/kg i.v., frame 17-22 min after injection). Moreover, the “ACE-PET Visual” value in series [1] (individual metastasis, visual grading of uptake) is “+++ (6×) and ++ (9×) and − and + (5×)”; in series [2] (primary tumor, individual patient, visual grading of uptake vs contra-lateral or surrounding tissue) it was “+ (2×) and +++ (4×) and ++ (4×)”. In addition, in the series with salivary glands, the “physiological uptake of ACE in salivary glands” value is reported as “normally high physiological uptake”. The “ACE-PET SUV, Mean ± SD” value in series [2] (primary tumors, ten patients) turned out to be 5.3±2.7.
For the compound `OC[C@H]1OC(O)[C@H]([18F])[C@@H](O)[C@@H]1O` (stereo partly drawn) [FDG, ^18F-fluoro-2-deoxy-D-glucose], in series [3], the “FDG SUV (mean±SD)” value is on record as 4.47±3.3 and the “range of FDG SUV” value is on record as 0.9-10.0. Besides, in series [4], the “FDG-PET SUV, Mean ± SD” value was found to be 9.6±7.0 and the “range of FDG SUV” value was 1.9-24.5.
